Consider 4 molecules from patent US20230115817A1, “CRYSTAL OF PDE3/PDE4 DUAL INHIBITOR AND USE THEREOF” (Chia Tai Tianqing Pharmaceutical Group Co., Ltd., priority 2020, published 2023).

A short description of data set [1]: Pharmacokinetic study in beagle dogs. The class given is in vivo. As for the experimental part: Experimental Example 3: Pharmacokinetic Study in Beagle Dogs
In this study, male beagle dogs were selected as test animals, and LC-MS/MS was used for quantitatively measuring the drug concentration in plasma of beagle dogs at different time points after intravenous injection or intragastric administration of the compound of formula (I) so as to evaluate the pharmacokinetics of the compound of formula (I) in beagle dogs.
The clear solution of the compound of formula (I) was injected into two beagle dogs of 10-12 kg via the cephalic vein or saphenous vein, and the clear solution of the compound of formula (I) was administered intragastrically to two beagle dogs of 10-12 kg (fasted overnight). The animals were all subjected to a blood collection of approximately 500 μL each time from peripheral veins at 0.0333, 0.0833, 0.25, 0.5, 1, 2, 4, 6, 8 and 24 h post-dose, and the blood was transferred into commercial centrifuge tubes containing 0.85-1.15 mg of K2 EDTA.2H2O anticoagulant, and plasma was separated by centrifugation at 3000 g for 10 min at 4° C. The plasma concentration was measured by LC-MS/MS, and the relevant pharmacokinetic parameters were calculated using pharmacokinetic software WinNonlin™ Version 6.3 (Pharsight, Mountain View, Calif.) using non-compartmental model linear-log trapezoidal method.

The subject of data set [2] is cigarette smoke-induced rat acute lung injury model. The experiment in a line: Pharmacodynamic study in cigarette smoke-induced rat acute lung injury model. It counts as in vivo, Sprague-Dawley rats. To be noted: atomization 0.05 and 0.15 mg/ml, 30 min daily. On the procedure: Experimental Example 5: Pharmacodynamic Study in Cigarette Smoke-Induced Rat Acute Lung Injury Model
Male Sprague-Dawley rats (supplied by Shanghai SLAC Laboratory Animal Co., Ltd.), SPF grade, approximately 200 g.
1. Animals were randomly divided into 6 groups according to body weight after arrival and a one-week acclimation;
2. On days 1-3 of the experiment, the corresponding compound of each group was atomized for 30 min. The animals in the model group and the treatment groups were exposed to cigarette smoke for 1 h, and after a 4-h interval, the animals were exposed to cigarette smoke again for 1 h. Cigarette smoke was given twice daily for 3 consecutive days. The control group animals were exposed to room air;
3. On day 4 of the experiment, the corresponding compound of each group was atomized for 30 min, and then the animals in the model group and the treatment groups were given the atomized 150 ng/mL LPS for 15 min by inhalation. After 3 h (from the time starting atomization), the animals were exposed to cigarette smoke for 1 h, and then the lung function (Penh and F) of the animals was examined; bronchoalveolar lavage fluid was collected for cell counting after the animals were euthanized with CO2. […]

Data set [3] is described as follows: Hygroscopicity study (dynamic vapor sorption). It counts as physicochemical. The settings on record: 25° C., 0%-90%-0% RH. As for the experimental part: Example 7: Hygroscopicity Study of Crystalline Form B of Compound of Formula (I)
Instrument model: SMS DVS Advantage
Test conditions: the sample (10-20 mg, the crystalline form B prepared in Example 3) was placed in DVS sample tray for testing.
Balancing: dm/dt=0.01%/min (shortest: 10 min, longest: 180 min)
Drying: drying at 0% RH for 120 min
RH (%) test gradient: 10%

Data set [4] is described as follows: Solid stability testing of crystalline form B (HPLC). The class given is physicochemical. On the procedure:
Example 6: Stability Study of Solid Crystalline Form B of the Compound of Formula (I) High Performance Liquid Chromatography (HPLC)
The chromatographic conditions of the HPLC method are seen in table below: Chromatographic column: Zorbax SB C-18, 4.6 mm×150 mm, 5 μm (PDS-HPLC-007)
Mobile phase A: 0.1% TFA in water
Preparation of sample: the sample was dissolved in a mixed solvent of acetonitrile and water (acetonitrile:water=50:50 (v/v))
The stability of the compound in the following conditions was examined, and samples were taken at different time points to detect the content. About 5 mg of the crystalline form B of the compound of formula (I) was accurately weighted in duplicate, transferred to a dry and clean glass bottle, spread into a thin layer as test samples, and placed in experimental conditions of influential factors ((60° C.), (relative humidity 92.5%), illumination (total illumination of 1.2×106 Lux·hr/near UV energy of 200 w·hr/m2), (40° C., relative humidity 75%), or (60° C., relative humidity 75%)). The samples were covered with aluminum foils having holes, and thus completely exposed to the conditions. Sampling analysis was performed at 5 days, 10 days, 1 month, 2 months and 3 months. The samples were completely exposed to illumination (visible light of 1200000 Lux, UV of 200 W) at room temperature.

The subject of a further data set is PDE4. The settings on record: cited from earlier work.
The conditions of data set [5]: in vivo; cited from earlier work.
For data set [6] the following is noted: cited from earlier work.
[7] abbreviates: intragastric administration 3 mg/kg.
Setting [8] is: intravenous injection 0.5 mg/kg.

Take `CCOc1cc2c(cc1OC)-c1c/c(=N\c3c(C)cc(C)cc3C)n(CCNC(=O)c3c(O)nnn3C)c(=O)n1CC2` [Compound of formula (I)]: in data set [1] (setting [7]), the “Area under plasma concentration-time curve (0-inf)” value is 0.123 µM·h, the Peak concentration is listed as 59.4 nM and the Time to peak was determined as 0.6 h. In addition, in data set [1] (setting [8]), the “Area under plasma concentration-time curve (0-inf)” value amounted to 0.21 µM·h, the Half-life is 18 min and the Plasma clearance is recorded as 70.3 mL/min/kg. For the same molecule, the bioavailability in data set [1] (male, dog, plasma, po, intragastric administration 3 mg/kg) was 7.5%. Also, in data set [2], the “Airway resistance index Penh (Mch challenge)” value was “reduce” and the “Total number of white blood cells in BALF” value is “reduce”.
Take `CCOc1cc2c(cc1OC)-c1c/c(=N\c3c(C)cc(C)cc3C)n(CCNC(=O)c3c(O)nnn3C)c(=O)n1CC2`: the “Hygroscopicity (DVS, in words)” value in data set [3] is on record as “low hygroscopicity”. For the same molecule, the Total impurities % in data set [4] (40° C.-75% RH-1 month) is given as 0.10%; in data set [4] (40° C.-75% RH-2 months) it was 0.08%; in data set [4] (40° C.-75% RH-3 months), 0.09%; in data set [4] (40° C.-75% RH-10 days), 0.10%; in data set [4] (60° C.-75% RH-1 month), 0.10%; in data set [4] (60° C.-75% RH-10 days), 0.10%. Moreover, the Total impurities % in data set [4] (60° C.-5 days) is listed as 0.10%; in data set [4] (60° C.-10 days), 0.11%; in data set [4] (92.5% RH-5 days), 0.11%; in data set [4] (92.5% RH-10 days), 0.10%; in data set [4] (Day 0), 0.11%; in data set [4] (Illumination (1.2×106 Lux·hr, near UV 200 w·hr/m2)), 0.10%. This molecule also showed a Total impurities % in data set [4] (In the dark) of 0.11%. The “Solid stability (in words)” value in data set [4] (high temperature, high humidity or illumination) is given as “good stability”.
Turning to `COc1cc2c(cc1OC)-c1cc(Oc3c(C(C)C)cccc3C(C)C)nc(=O)n1CC2` [RPL565], the “PDE4 inhibitory activity (in words)” value in the data set on PDE4 was “unsatisfactory”. In addition, the “Plasma clearance (in words)” value in data set [5] is on record as “high plasma clearance”. The “Solubility (in words)” value in data set [6] was “poor solubility”.
Take `COc1cc2c(cc1OC)-c1c/c(=N\c3c(C)cc(C)cc3C)n(CCNC(N)=O)c(=O)n1CC2` [RPL554]: in the data set with PDE4, the “PDE4 inhibitory activity (in words)” value was “unsatisfactory”. In addition, the “Plasma clearance (in words)” value in data set [5] was “high plasma clearance”. Further, in data set [6], the “Solubility (in words)” value is “poor solubility”.
